Target: Cyclin-dependent kinase 2 (Homo sapiens, UniProt P24941)
Assay: Inhibition of Cyclin-dependent kinase 2 (CDK2)

## CN1CCC(c2c(O)cc(O)c3c(O)c(Cc4ccc([N+](=O)[O-])cc4)oc23)CC1 [4,6-Dihydroxy-7-(1-methyl-piperidin-4-yl)-2-(4-nitro-benzylidene)-benzofuran-3-one]
  IC50: 310 nM

From BindingDB's records for doi:10.1021/jm0205043 (University of California, 2003)
